Source: patent US20080319065A1, “Systemic and Intrathecal Effects of a Novel Series of Phospholipase A2 Inhibitors on Hyperalgesia and Spinal Pge2 Release” (The Regents of the University of California, priority 2005, published 2008)

Assays:
[1] = tested on: murine RAW 264.7 macrophage-like cell line; assay: Long-term LPS stimulation, PGE2 release; format: cell-based
Experimental: Several 2-oxoamides were tested in the long-term lipopolysaccharide (LPS) stimulation pathway in the murine RAW 264.7 macrophage-like cell line. (Raschke, et al., Cell, 1978, 15, 261-267). This pathway requires GIVA PLA2 activity and results in the extracellular release of many eicosanoid compounds including the prostaglandin PGE2. (Gijon, et al., leukoc. Biol., 1999, 65, 330-336). […] In the low μM range, AX041 and AX073 reduced PGE2 release by roughly 40% (FIG. 1(D)). At 1 μM and 5 μM concentrations, small activations were often seen. The in vitro and cellular results together are consistent with the known roles of GVIA PLA2 given that AX010, a selective GVIA inhibitor, had no cellular effect. […] Inhibitors selective for GIVA PLA2 or dual specificity inhibitors reduce PGE2 levels, also consistent with the known role of GIVA PLA2 in PGE2 production.

GV sPLA2 = biological target: T1, GV sPLA2 (Homo sapiens, UniProt P39877); assay: GV sPLA2 activity assay; format: biochemical; settings: at 0.091 mole fraction
T1 sequence (P39877 21-138): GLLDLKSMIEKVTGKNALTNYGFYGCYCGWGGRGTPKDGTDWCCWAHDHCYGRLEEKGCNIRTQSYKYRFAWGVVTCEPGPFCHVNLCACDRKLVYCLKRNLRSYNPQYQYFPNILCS

[2] = tested on: intrathecal SP evoked thermal hyperalgesia; assay: Intrathecal substance P-induced thermal hyperalgesia; format: in vivo, rat; settings: 3 mg/kg IP, 30 min before IT SP
From the text: Male Holtzman Sprague-Dawley rats (300-350 g; Harlan Industries) were individually housed and maintained on a 12-hr light/dark cycle with free access to food and water. For spinal drug injections, lumbar catheters were implanted in rats under isoflurane anesthesia according to a modification of the procedure described by Yaksh (Yaksh and Rudy, supra, 1976). A polyethylene catheter (PE-5; Spectranetics, 0.014 in OD) was inserted into the intrathecal space and advanced to the rostral edge of the lumbar enlargement through an incision in the atlanto-occipital membrane. Five days after implantation rats were entered into the study. […] A timer was actuated with the light source, and latency was defined as the time required for the paw to show a brisk withdrawal as detected by photodiode motion sensors that stop the timer and terminate the stimulus. Paw withdrawal latencies (PWL) were assessed prior to any treatment (control) and at intervals after treatment. Left (injured) and right (uninjured) paw withdrawal latencies were assessed and plotted versus time. In addition, difference latency scores (uninjured-injured) were calculated and the average withdrawal latency over the post-injection observation intervals are calculated for comparison between treatment groups. […] The mean PWL of the left and right paws was assessed at each time point. […]

[3] = tested on: carrageenan-induced thermal hyperalgesia; assay: Carrageenan-induced thermal hyperalgesia, paw withdrawal latency; format: in vivo, rat
From the text: Male Holtzman Sprague-Dawley rats (300-350 g; Harlan Industries) were individually housed and maintained on a 12-hr light/dark cycle with free access to food and water. For spinal drug injections, lumbar catheters were implanted in rats under isoflurane anesthesia according to a modification of the procedure described by Yaksh (Yaksh and Rudy, supra, 1976). A polyethylene catheter (PE-5; Spectranetics, 0.014 in OD) was inserted into the intrathecal space and advanced to the rostral edge of the lumbar enlargement through an incision in the atlanto-occipital membrane. Five days after implantation rats were entered into the study. In separate experiments to assess spinal prostaglandins release, rats were prepared with lumbar loop dialysis catheters with three lumens, as previously described, see (Yaksh, et al., supra, 2001). Thermal hyperalgesia. Two approaches were employed to initiate a hyperalgesic state. An inflammation-evoked thermal hyperalgesia was induced by subcutaneous injection of 2 mg of carrageenan (Sigma, St. Louis, Mo., 100 μl of […] solution (w/v) in physiological saline) into the plantar surface of the left hind paw. To assess the thermally-evoked paw-withdrawal response, a commercially available device modeled after that described by Hargreaves and colleagues (Hargreaves, Pain, 32:77-88, 1988) was used (see, Dirig and Yaksh, Neurosci. Lett., 220:93-96, 1996; Dirig, et al., J. Neurosci. Methods, 76:183-191, 1997). In brief, the device consisted of a glass surface (maintained at 25° C.) on which the rats are placed individually in Plexiglas cubicles (9×22×25 cm). The thermal nociceptive stimulus originated from a focused projection bulb positioned below the glass surface. The stimulus was delivered separately to either hind paw of each test subject with the aid of an angled mirror mounted on the stimulus source. A timer was actuated with the light source, and latency was defined as the time required for the paw to show a brisk withdrawal as detected by photodiode motion sensors that stop the timer and terminate the stimulus. Paw withdrawal latencies (PWL) were assessed prior to any treatment (control) and at intervals after treatment. Left (injured) and right (uninjured) paw withdrawal latencies were assessed and plotted versus time. In addition, difference latency scores (uninjured-injured) were calculated and the average withdrawal latency over the post-injection observation intervals are calculated for comparison between treatment groups. Drugs were delivered systemically (IP) or spinally (IT). Intraperitoneal drugs were delivered uniformly in doses prepared in volumes of 0.5 ml/kg. Drugs injected IT were administered in a total volume of […] followed by a 10 μl flush using vehicle.

| SMILES | inhibition of PGE2 release, in words [1] | efficacy against sPLA2 (GV sPLA2) [%] | prevention of intrathecal SP-evoked thermal hyperalgesia [2] | antihyperalgesic effect by pretreatment interval ([3]; 3 mg/kg IP, 15 min before carrageenan) | antihyperalgesic effect by pretreatment interval ([3]; 3 mg/kg IP, 30 min before carrageenan) | reduction of carrageenan thermal hyperalgesia ([3]; 3 mg/kg IP, 30 min pretreatment) | antihyperalgesic effect by pretreatment interval ([3]; 3 mg/kg IP, 180 min before carrageenan) | antihyperalgesic effect by pretreatment interval ([3]; 3 mg/kg IP, 360 min before carrageenan) | dose dependency of anti-hyperalgesic effect ([3]; IP, 0.2-3 mg/kg) | ED50 ([3]; Rattus norvegicus, IP, carrageenan thermal hyperalgesia, read-out: IP ED50, dose that reduced the hyperalgesia by 50%) [mg/kg] | attenuation of carrageenan thermal hyperalgesia ([3]; intrathecal 30 μg/10 μL, 15 min pretreatment) |
| --- | --- | --- | --- | --- | --- | --- | --- | --- | --- | --- | --- |
| CCC(=O)C(=O)NCCCC(=O)OC [AX010] | did not inhibit PGE2 release |  |  |  |  |  |  |  |  |  |  |
| CCCCCCCCCCCCCCC(=O)C(=O)NCCCC(=O)OCC [AX048, Ethyl 4-[(2-oxohexadecanoyl)amino]butanoate] |  | 61.5 | completely prevented the spinally-evoked thermal hyperalgesia | minimal effects | peak effects | reduced the thermal hyperalgesia | effects persisted | no different from the control | dose-dependent | 1.2 | attenuated the thermal hyperalgesia |
